“And” between values parts separate entries of the source, which are not always exact repeats. Identical values can stand only once. Like-named read-outs stand apart in the source and are kept apart here.
Assays:
[1] = first pass
Excerpt: The irrigation water at the second farm was from a different source than the first farm.

[2] = for Drainage Rate: Time (50 g), percentage relative to irrigation water / Drainage Rate: liquid eluted at 60 mins, percentage relative to irrigation water / Drainage Rate: liquid eluted at 120 mins, percentage relative to irrigation water / Liquid Eluted after 60 min / Liquid Eluted after 120 min / Time (50 g of liquid, in min) / More liquid eluted by mass than the irrigation water: first farm soil; for Liquid Eluted after 60 min / Liquid Eluted after 120 min / Time (50 g of liquid, in min): Ca formate 22 ppm by moles, HCO2H 0.33% by weight, average of two columns
Excerpt: The objective was to investigate the behavior of different irrigation water treatments and determine the relative amounts of water that passed through the soil columns. The column retention times reflect the rate at which the liquid passes through the soil. Understanding these retention times provides insights about the transport and movement of irrigation water (and any fertilizers dissolved therein) through the soil, which has implications for the volume of water passing into and through the root zone, nutrient availability to crops, leaching of contaminants, and overall soil health.
The data in Table 1 is for the average of the two soil samples.

[3] = ICP and flow injection (FIA) analyses of solutions passed through soil columns, second farm; conditions: single soil sample
Excerpt: FIA was used to determine the content of the listed anion (e.g., NO3, Cl, PO4, etc.). Results are presented from a single soil sample.

[4] = first farm soil, duplicate columns A and B
[5] = 1st pass, Alternating = formic acid pass
[6] = 2nd pass, Alternating = calcium formate pass
[7] = 3rd pass, Alternating = formic acid pass
[8] = 4th pass, Alternating = calcium formate pass
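Throughout, for Mn in solution passed through soil column (ICP): eluate from PVC columns holding 100 g of dry ground farm soil, analysed by ICP-OES for element content after the solution had drained through, irrigation water measured as received for reference.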

SMILES: O=CO [HCO2H, formic acid]
- Liquid retained by the soil samples on average ([1]; dry soil, second farm (FIG. 3)): 41 to 42 mL
- Time of first appearance of liquid from the columns on average ([1]; dry soil, second farm (FIG. 3)): < 20 min
- Amount of liquid passed through the columns compared with irrigation water at the same lengths of time ([1]; second farm, from 20-30 minutes up to 240 minutes): more than three times as much
- Drainage Rate: Time (50 g), percentage relative to irrigation water ([2]; 1st pass): 50.0%
- Drainage Rate: liquid eluted at 60 mins, percentage relative to irrigation water ([2]; 1st pass): 214%
- Drainage Rate: liquid eluted at 120 mins, percentage relative to irrigation water ([2]; 1st pass): 168%
- Liquid Eluted after 60 min ([2]; 1st pass): 34.1 g
- Liquid Eluted after 120 min ([2]; 1st pass): 59.7 g
- Time (50 g of liquid, in min) ([2]; 1st pass): 90 min
- Drainage Rate: Time (50 g), percentage relative to irrigation water ([2]; 2nd pass): 50.0%
- Drainage Rate: liquid eluted at 60 mins, percentage relative to irrigation water ([2]; 2nd pass): 206%
- Drainage Rate: liquid eluted at 120 mins, percentage relative to irrigation water ([2]; 2nd pass): 198%
- Liquid Eluted after 60 min ([2]; 2nd pass): 43.9 g
- Liquid Eluted after 120 min ([2]; 2nd pass): 78.9 g
- Time (50 g of liquid, in min) ([2]; 2nd pass): 90 min
- Drainage Rate: Time (50 g), percentage relative to irrigation water ([2]; 3rd pass): 50.0%
- Drainage Rate: liquid eluted at 60 mins, percentage relative to irrigation water ([2]; 3rd pass): 189%
- Drainage Rate: liquid eluted at 120 mins, percentage relative to irrigation water ([2]; 3rd pass): 189%
- Liquid Eluted after 60 min ([2]; 3rd pass): 36.0 g
- Liquid Eluted after 120 min ([2]; 3rd pass): 68.3 g
- Time (50 g of liquid, in min) ([2]; 3rd pass): 90 min
- Drainage Rate: Time (50 g), percentage relative to irrigation water ([2]; 4th pass): 50.0%
- Drainage Rate: liquid eluted at 60 mins, percentage relative to irrigation water ([2]; 4th pass): 207%
- Drainage Rate: liquid eluted at 120 mins, percentage relative to irrigation water ([2]; 4th pass): 183%
- Liquid Eluted after 60 min ([2]; 4th pass): 40.5 g
- Liquid Eluted after 120 min ([2]; 4th pass): 69.5 g
- Time (50 g of liquid, in min) ([2]; 4th pass): 90 min
- Liquid retained by the soil samples on average ([2]; first pass, dry soil, first farm, 100 ml added (FIG. 1)): about 36 ml
- More liquid eluted by mass than the irrigation water ([2]; first pass): 170-210%
- More liquid eluted by mass than the irrigation water ([2]; fourth pass): 180-210%
- More liquid eluted by mass than the irrigation water ([2]; second pass): 200-210%
- More liquid eluted by mass than the irrigation water ([2]; third pass): ~ 190%
- B in solution passed through soil column (ICP) [3, 5]: 0.6 ppm
- Ca in solution passed through soil column (ICP) [3, 5]: 260.7 ppm
- Cl^− in solution passed through soil column (FIA) [3, 5]: 304.0 ppm
- K in solution passed through soil column (ICP) [3, 5]: 9.7 ppm
- Mg in solution passed through soil column (ICP) [3, 5]: 69.3 ppm
- NO3^− in solution passed through soil column (FIA) [3, 5]: 0.0 ppm
- Na in solution passed through soil column (ICP) [3, 5]: 345.5 ppm
- P in solution passed through soil column (ICP) [3, 5]: 0.7 ppm
- S in solution passed through soil column (ICP) [3, 5]: 43.8 ppm
- Si in solution passed through soil column (ICP) [3, 5]: 31.8 ppm
- B in solution passed through soil column (ICP) [3, 6]: 0.5 ppm
- Ca in solution passed through soil column (ICP) [3, 6]: 312.7 ppm
- Cl^− in solution passed through soil column (FIA) [3, 6]: 102.8 ppm
- K in solution passed through soil column (ICP) [3, 6]: 9.0 ppm
- Mg in solution passed through soil column (ICP) [3, 6]: 81.3 ppm
- NO3^− in solution passed through soil column (FIA) [3, 6]: 0.0 ppm
- Na in solution passed through soil column (ICP) [3, 6]: 175.2 ppm
- P in solution passed through soil column (ICP) [3, 6]: 1.9 ppm
- S in solution passed through soil column (ICP) [3, 6]: 11.4 ppm
- Si in solution passed through soil column (ICP) [3, 6]: 43.1 ppm
- B in solution passed through soil column (ICP) [3, 7]: 0.4 ppm
- Ca in solution passed through soil column (ICP) [3, 7]: 337.4 ppm
- Cl^− in solution passed through soil column (FIA) [3, 7]: 91.7 ppm
- K in solution passed through soil column (ICP) [3, 7]: 9.9 ppm
- Mg in solution passed through soil column (ICP) [3, 7]: 84.0 ppm
- NO3^− in solution passed through soil column (FIA) [3, 7]: 0.0 ppm
- Na in solution passed through soil column (ICP) [3, 7]: 79.9 ppm
- P in solution passed through soil column (ICP) [3, 7]: 5.8 ppm
- S in solution passed through soil column (ICP) [3, 7]: 8.0 ppm
- Si in solution passed through soil column (ICP) [3, 7]: 51.9 ppm
- B in solution passed through soil column (ICP) [3, 8]: 0.3 ppm
- Ca in solution passed through soil column (ICP) [3, 8]: 286.6 ppm
- Cl^− in solution passed through soil column (FIA) [3, 8]: 92.9 ppm
- K in solution passed through soil column (ICP) [3, 8]: 10.6 ppm
- Mg in solution passed through soil column (ICP) [3, 8]: 65.5 ppm
- NO3^− in solution passed through soil column (FIA) [3, 8]: 0.0 ppm
- Na in solution passed through soil column (ICP) [3, 8]: 66.1 ppm
- P in solution passed through soil column (ICP) [3, 8]: 6.4 ppm
- S in solution passed through soil column (ICP) [3, 8]: 8.3 ppm
- Si in solution passed through soil column (ICP) [3, 8]: 65.2 ppm
- B in solution passed through soil column (ICP) ([4]; 1st pass): 4.34 ppm and 4.25 ppm
- Ca in solution passed through soil column (ICP) ([4]; 1st pass): 268.8 ppm and 261.2 ppm
- K in solution passed through soil column (ICP) ([4]; 1st pass): 19.52 ppm and 18.52 ppm
- Mg in solution passed through soil column (ICP) ([4]; 1st pass): 107.6 ppm and 103.1 ppm
- Mn in solution passed through soil column (ICP) ([4]; 1st pass): 4.40 ppm and 4.25 ppm
- Na in solution passed through soil column (ICP) ([4]; 1st pass): 111.2 ppm and 109.8 ppm
- P in solution passed through soil column (ICP) ([4]; 1st pass): 1.06 ppm and 0.55 ppm
- S in solution passed through soil column (ICP) ([4]; 1st pass): 83.5 ppm and 74.5 ppm
- Si in solution passed through soil column (ICP) ([4]; 1st pass): 31.3 ppm and 30.9 ppm
- B in solution passed through soil column (ICP) ([4]; 2nd pass): 2.42 ppm and 2.41 ppm
- Ca in solution passed through soil column (ICP) ([4]; 2nd pass): 173.7 ppm and 205.0 ppm
- K in solution passed through soil column (ICP) ([4]; 2nd pass): 15.36 ppm and 17.82 ppm
- Mg in solution passed through soil column (ICP) ([4]; 2nd pass): 69.7 ppm and 79.2 ppm
- Mn in solution passed through soil column (ICP) ([4]; 2nd pass): 3.32 ppm and 3.98 ppm
- Na in solution passed through soil column (ICP) ([4]; 2nd pass): 53.9 ppm and 49.3 ppm
- P in solution passed through soil column (ICP) ([4]; 2nd pass): 1.01 ppm and 0.73 ppm
- S in solution passed through soil column (ICP) ([4]; 2nd pass): 22.8 ppm and 22.1 ppm
- Si in solution passed through soil column (ICP) ([4]; 2nd pass): 34.1 ppm and 40.9 ppm
- B in solution passed through soil column (ICP) ([4]; 3rd pass): 2.09 ppm and 1.82 ppm
- Ca in solution passed through soil column (ICP) ([4]; 3rd pass): 167.8 ppm and 176.4 ppm
- K in solution passed through soil column (ICP) ([4]; 3rd pass): 14.81 ppm and 16.46 ppm
- Mg in solution passed through soil column (ICP) ([4]; 3rd pass): 66.6 ppm and 67.2 ppm
- Mn in solution passed through soil column (ICP) ([4]; 3rd pass): 5.00 ppm and 5.23 ppm
- Na in solution passed through soil column (ICP) ([4]; 3rd pass): 36.5 ppm and 31.2 ppm
- P in solution passed through soil column (ICP) ([4]; 3rd pass): 1.09 ppm and 0.90 ppm
- S in solution passed through soil column (ICP) ([4]; 3rd pass): 13.4 ppm and 11.5 ppm
- Si in solution passed through soil column (ICP) ([4]; 3rd pass): 46.9 ppm and 49.9 ppm
- B in solution passed through soil column (ICP) ([4]; 4th pass): 0.79 ppm and 0.73 ppm
- Ca in solution passed through soil column (ICP) ([4]; 4th pass): 130.3 ppm and 140.7 ppm
- K in solution passed through soil column (ICP) ([4]; 4th pass): 13.34 ppm and 15.64 ppm
- Mg in solution passed through soil column (ICP) ([4]; 4th pass): 50.6 ppm and 52.5 ppm
- Mn in solution passed through soil column (ICP) ([4]; 4th pass): 4.46 ppm and 4.84 ppm
- Na in solution passed through soil column (ICP) ([4]; 4th pass): 16.6 ppm and 16.4 ppm
- P in solution passed through soil column (ICP) ([4]; 4th pass): 1.33 ppm and 1.63 ppm
- S in solution passed through soil column (ICP) ([4]; 4th pass): 3.7 ppm and 3.6 ppm
- Si in solution passed through soil column (ICP) ([4]; 4th pass): 34.1 ppm and 35.3 ppm

Source: patent publication US12686652B2, “Methods of increasing irrigation water and fertilizer delivery to soil using formic acid and formate salts, making a formate salt from carbon dioxide, and generating a carbon credit” (Deerpoint Group, Inc., priority 2023, dated 2026)
